The target of assay [1] is T1, off-target kinases (Homo sapiens, UniProt Q15139).
T1 sequence (Q15139 1-912): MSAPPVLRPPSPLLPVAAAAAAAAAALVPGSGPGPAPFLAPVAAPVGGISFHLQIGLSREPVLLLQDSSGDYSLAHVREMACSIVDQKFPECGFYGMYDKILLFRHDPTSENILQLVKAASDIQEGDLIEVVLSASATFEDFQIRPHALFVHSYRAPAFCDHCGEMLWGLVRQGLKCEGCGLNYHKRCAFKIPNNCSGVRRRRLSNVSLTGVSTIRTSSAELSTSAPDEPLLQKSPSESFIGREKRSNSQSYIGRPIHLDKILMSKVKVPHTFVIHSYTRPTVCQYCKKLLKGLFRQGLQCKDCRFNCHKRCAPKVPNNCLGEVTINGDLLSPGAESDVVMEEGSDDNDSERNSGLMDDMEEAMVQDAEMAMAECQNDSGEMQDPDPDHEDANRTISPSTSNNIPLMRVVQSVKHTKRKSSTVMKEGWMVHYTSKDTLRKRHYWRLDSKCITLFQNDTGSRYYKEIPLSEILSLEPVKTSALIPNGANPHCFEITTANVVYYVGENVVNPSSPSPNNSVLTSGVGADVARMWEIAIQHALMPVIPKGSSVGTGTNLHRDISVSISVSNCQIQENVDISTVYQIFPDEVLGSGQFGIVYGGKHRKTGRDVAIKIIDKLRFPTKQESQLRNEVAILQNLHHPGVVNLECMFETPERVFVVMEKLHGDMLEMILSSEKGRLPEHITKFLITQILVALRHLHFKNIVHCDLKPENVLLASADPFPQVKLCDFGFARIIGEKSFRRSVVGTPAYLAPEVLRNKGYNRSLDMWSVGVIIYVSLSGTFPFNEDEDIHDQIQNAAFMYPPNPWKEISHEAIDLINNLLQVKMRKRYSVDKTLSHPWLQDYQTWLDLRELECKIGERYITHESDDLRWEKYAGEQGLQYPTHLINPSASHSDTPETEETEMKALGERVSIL
Put plainly: SelectScreen Kinase Profiling, single point inhibition and IC50 for off-target kinases. The class given is biochemical. Particulars: PRKD1 (PKC mu), ATP Km app, ZLYTE.

Assay [2] deals with T2, off-target kinases (Homo sapiens, UniProt Q8IYT8).
T2 sequence (Q8IYT8 1-1036): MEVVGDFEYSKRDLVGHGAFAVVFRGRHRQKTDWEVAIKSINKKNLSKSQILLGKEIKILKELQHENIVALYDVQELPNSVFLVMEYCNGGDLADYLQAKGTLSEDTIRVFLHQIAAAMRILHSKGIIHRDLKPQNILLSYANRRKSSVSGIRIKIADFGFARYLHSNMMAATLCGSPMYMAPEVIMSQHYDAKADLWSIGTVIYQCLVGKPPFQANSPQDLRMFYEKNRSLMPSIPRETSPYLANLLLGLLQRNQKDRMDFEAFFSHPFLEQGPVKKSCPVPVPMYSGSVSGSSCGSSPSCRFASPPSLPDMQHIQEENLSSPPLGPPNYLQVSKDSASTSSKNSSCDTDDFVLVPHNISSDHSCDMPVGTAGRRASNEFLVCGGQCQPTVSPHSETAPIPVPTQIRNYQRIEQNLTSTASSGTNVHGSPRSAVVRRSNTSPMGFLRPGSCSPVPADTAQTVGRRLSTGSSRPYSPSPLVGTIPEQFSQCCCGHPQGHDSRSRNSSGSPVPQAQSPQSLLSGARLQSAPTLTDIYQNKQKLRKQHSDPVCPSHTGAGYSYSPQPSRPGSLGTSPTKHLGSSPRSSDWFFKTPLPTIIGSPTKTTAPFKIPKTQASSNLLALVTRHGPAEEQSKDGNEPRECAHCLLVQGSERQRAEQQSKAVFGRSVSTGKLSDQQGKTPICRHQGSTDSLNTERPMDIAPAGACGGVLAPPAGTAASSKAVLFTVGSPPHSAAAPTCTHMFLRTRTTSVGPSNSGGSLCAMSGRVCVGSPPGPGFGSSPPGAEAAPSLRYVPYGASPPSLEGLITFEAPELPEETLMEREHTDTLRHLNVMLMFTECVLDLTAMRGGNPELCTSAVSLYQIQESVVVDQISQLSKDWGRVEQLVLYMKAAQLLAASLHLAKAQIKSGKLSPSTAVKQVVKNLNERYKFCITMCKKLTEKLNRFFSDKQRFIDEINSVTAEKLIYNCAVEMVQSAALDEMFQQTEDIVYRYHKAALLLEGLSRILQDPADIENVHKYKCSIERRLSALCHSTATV
Described as above. It is filed as biochemical. As to conditions: ULK2, LanthaScreen Binding. For orientation: TR-FRET usually uses a lanthanide donor and a delayed reading to cut background.

The term inhibition denotes the change of the read-out against control, counted positive when it falls.

Like-named read-outs stand apart in the source and are kept apart here.

`N#Cc1cc(-c2ncnc(Nc3ccc(N4CCN(C5COC5)CC4)cc3)n2)ccc1OC1CCOCC1` [Compound 1, 5-(4-((4-(4-(oxetan-3-yl)piperazin-1-yl)phenyl)amino)-1,3,5-triazin-2-yl)-2-((tetrahydro-2H-pyran-4-yl)oxy)benzonitrile]: the inhibition at off-target kinases [1] (read-out: % Inhibition 1) came out at 100%; at off-target kinases [1] (read-out: % Inhibition 2), 95%; at off-target kinases [1] (read-out: % Inhibition Avg) it was 98%; on off-target kinases [2] (read-out: % Inhibition 1), 86%; at off-target kinases [2] (read-out: % Inhibition 2) it was 90%; on off-target kinases [2] (read-out: % Inhibition Avg) it was 88%.

These data come from patent US11572590B2, “Methods for evaluating tumor cell spheroids using 3D microfluidic cell culture device” (Dana-Farber Cancer Institute, Inc., priority 2017, dated 2023).
